Reference: article PMC6743422, “Preclinical disposition of MGS0274 besylate, a prodrug of a potent group II metabotropic glutamate receptor agonist MGS0008 for the treatment of schizophrenia” (Pharmacology Research & Perspectives, 2019)
Like-named read-outs stand apart in the source and are kept apart here. Marks after values point to notes of the source that are not given here.

Experiments:
[1] = target: T1, CYP1A2 (Homo sapiens, UniProt P05177); assay: CYP inhibition in human liver microsomes, CYP1A2; type: in vitro ADME; conditions: human liver microsomes 0.1 mg/mL; probe Phenacetin, metabolite Acetaminophen
T1 construct: using probe substrates for each CYP isoform and human liver microsomes; from tissue; host or cells: human liver microsomes
T1 sequence (P05177 whole entry, canonical isoform): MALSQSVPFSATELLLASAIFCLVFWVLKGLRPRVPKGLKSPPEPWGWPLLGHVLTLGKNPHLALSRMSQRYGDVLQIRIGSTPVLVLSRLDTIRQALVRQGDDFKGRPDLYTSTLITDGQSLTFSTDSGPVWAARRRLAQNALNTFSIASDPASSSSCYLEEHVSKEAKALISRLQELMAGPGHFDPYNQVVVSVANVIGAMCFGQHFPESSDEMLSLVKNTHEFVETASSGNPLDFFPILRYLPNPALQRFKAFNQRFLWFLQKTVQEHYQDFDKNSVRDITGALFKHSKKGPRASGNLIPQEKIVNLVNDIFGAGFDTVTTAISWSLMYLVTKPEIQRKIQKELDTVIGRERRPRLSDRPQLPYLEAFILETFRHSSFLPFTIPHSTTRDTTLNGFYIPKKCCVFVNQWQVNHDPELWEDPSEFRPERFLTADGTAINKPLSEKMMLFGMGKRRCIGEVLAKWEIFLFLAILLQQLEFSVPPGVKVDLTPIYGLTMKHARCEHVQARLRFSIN
Method: The inhibition potential of MGS0008 (0.3‐100 µmol/L) and MGS0274 besylate (0.03‐10 µmol/L) on the activity of human cytochrome P450 (CYP) isoforms (CYP1A2, 2B6, 2C8, 2C9, 2C19, 2D6, and 3A) was investigated using probe substrates for each CYP isoform and human liver microsomes, of which the final protein concentration was set at 0.1 mg/mL (see Table S2). The assay was started by spiking the reaction mixture, which had been pre‐incubated at 37°C for 5 minutes, with NADP^+. After incubation for 5 to 10 minutes, the reaction was terminated by adding acetonitrile containing an internal standard for each probe substrate, and the resultant mixture was centrifuged. Aliquots of the supernatant were subjected to bioanalysis using LC‐MS/MS (see Table S1‐D).
The final protein concentration in the reaction mixture was set at 0.1 mg/mL. The values in parentheses represent the final concentrations of compounds added in each reaction mixture. […]

[2] = target: T2, CYP2B6 (Homo sapiens, UniProt P20813); assay: CYP inhibition in human liver microsomes, CYP2B6; type: in vitro ADME; conditions: human liver microsomes 0.1 mg/mL; probe Bupropion, metabolite Hydroxybupropion
T2 construct: using probe substrates for each CYP isoform and human liver microsomes; from tissue; host or cells: human liver microsomes
T2 sequence (P20813 whole entry, canonical isoform): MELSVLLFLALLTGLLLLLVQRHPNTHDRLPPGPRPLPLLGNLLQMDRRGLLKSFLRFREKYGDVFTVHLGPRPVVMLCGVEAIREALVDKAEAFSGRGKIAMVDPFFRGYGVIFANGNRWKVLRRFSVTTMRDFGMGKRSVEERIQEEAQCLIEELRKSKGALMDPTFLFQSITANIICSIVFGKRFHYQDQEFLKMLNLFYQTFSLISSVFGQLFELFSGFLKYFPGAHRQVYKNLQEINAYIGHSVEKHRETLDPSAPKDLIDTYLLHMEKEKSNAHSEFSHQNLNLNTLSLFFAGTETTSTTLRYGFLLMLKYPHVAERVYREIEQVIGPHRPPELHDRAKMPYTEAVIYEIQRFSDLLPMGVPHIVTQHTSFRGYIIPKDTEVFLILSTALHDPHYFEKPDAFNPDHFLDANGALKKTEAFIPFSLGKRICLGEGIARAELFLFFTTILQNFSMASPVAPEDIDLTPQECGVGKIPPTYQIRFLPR

[3] = target: T3, CYP2C8 (Homo sapiens, UniProt P10632); assay: CYP inhibition in human liver microsomes, CYP2C8; type: in vitro ADME; conditions: human liver microsomes 0.1 mg/mL; probe Amodiaquine, metabolite N-desethylamodiaquine
T3 construct: using probe substrates for each CYP isoform and human liver microsomes; from tissue; host or cells: human liver microsomes
T3 sequence (P10632 whole entry, canonical isoform): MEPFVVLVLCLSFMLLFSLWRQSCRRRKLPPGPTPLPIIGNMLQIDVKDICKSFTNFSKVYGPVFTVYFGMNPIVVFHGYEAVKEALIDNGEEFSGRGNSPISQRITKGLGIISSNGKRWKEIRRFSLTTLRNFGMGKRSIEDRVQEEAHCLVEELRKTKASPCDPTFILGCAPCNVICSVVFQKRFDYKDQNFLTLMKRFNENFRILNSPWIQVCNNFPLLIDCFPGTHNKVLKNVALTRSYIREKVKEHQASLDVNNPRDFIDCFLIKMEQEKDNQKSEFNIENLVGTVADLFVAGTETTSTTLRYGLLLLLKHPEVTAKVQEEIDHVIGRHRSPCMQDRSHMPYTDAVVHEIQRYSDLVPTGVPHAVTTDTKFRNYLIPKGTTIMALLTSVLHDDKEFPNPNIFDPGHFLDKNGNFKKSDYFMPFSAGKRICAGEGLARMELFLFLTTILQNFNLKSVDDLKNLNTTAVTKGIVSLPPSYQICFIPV

[4] = target: T4, CYP2C9 (Homo sapiens, UniProt P11712); assay: CYP inhibition in human liver microsomes, CYP2C9; type: in vitro ADME; conditions: human liver microsomes 0.1 mg/mL; probe Diclofenac, metabolite 4'-Hydroxydiclofenac
T4 construct: using probe substrates for each CYP isoform and human liver microsomes; from tissue; host or cells: human liver microsomes
T4 sequence (P11712 whole entry, canonical isoform): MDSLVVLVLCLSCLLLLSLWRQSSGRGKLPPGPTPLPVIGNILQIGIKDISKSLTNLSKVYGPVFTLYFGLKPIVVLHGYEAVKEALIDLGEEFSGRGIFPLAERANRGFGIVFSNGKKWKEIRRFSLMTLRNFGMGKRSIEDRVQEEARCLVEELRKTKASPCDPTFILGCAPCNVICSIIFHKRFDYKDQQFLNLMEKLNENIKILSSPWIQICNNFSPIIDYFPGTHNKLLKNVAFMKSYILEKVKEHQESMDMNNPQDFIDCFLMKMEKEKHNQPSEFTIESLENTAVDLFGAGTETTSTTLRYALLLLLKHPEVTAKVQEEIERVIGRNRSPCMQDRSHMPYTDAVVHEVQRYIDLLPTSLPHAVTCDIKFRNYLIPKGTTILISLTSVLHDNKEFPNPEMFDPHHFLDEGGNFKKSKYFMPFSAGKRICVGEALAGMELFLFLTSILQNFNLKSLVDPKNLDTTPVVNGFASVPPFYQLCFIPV

[5] = target: T5, CYP2C19 (Homo sapiens, UniProt P33261); assay: CYP inhibition in human liver microsomes, CYP2C19; type: in vitro ADME; conditions: human liver microsomes 0.1 mg/mL; probe (S)-Mephenytoin, metabolite 4'-Hydroxymephenytoin
T5 construct: using probe substrates for each CYP isoform and human liver microsomes; from tissue; host or cells: human liver microsomes
T5 sequence (P33261 whole entry, canonical isoform): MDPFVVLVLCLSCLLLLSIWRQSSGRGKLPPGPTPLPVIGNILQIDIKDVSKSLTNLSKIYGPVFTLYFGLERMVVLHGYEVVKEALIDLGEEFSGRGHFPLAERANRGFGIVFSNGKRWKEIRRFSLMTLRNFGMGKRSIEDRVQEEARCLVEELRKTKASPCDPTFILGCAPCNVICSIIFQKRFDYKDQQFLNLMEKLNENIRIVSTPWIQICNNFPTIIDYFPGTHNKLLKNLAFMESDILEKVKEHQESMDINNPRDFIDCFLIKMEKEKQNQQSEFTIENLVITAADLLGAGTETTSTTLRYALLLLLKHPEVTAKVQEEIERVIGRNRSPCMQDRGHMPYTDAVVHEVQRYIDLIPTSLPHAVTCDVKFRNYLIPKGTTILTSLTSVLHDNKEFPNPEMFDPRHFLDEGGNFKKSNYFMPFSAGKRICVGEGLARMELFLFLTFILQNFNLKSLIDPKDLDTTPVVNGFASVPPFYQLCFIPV

[6] = target: T6, CYP2D6 (Homo sapiens, UniProt P10635); assay: CYP inhibition in human liver microsomes, CYP2D6; type: in vitro ADME; conditions: human liver microsomes 0.1 mg/mL; probe (±)-Bufuralol, metabolite 1'-Hydroxybufuralol
T6 construct: using probe substrates for each CYP isoform and human liver microsomes; from tissue; host or cells: human liver microsomes
T6 sequence (P10635 whole entry, canonical isoform): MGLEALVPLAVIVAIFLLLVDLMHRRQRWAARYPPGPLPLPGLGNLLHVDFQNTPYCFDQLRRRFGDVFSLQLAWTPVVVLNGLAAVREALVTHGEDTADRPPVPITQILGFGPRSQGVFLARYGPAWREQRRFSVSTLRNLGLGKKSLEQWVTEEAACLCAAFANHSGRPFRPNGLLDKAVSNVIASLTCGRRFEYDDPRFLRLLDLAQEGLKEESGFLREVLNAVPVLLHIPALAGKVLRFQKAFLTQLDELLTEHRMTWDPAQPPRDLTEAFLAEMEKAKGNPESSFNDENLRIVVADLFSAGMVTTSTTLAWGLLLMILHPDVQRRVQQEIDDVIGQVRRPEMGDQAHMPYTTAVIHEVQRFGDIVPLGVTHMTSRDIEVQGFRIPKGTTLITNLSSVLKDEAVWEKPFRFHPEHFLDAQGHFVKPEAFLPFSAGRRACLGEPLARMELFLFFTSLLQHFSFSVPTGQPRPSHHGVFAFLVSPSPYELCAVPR

[7] = tested on: CYP1A2, 2B6, 2C8, 2C9, 2C19, 2D6 and 3A; assay: CYP inhibition in human liver microsomes, all 7 isoforms together; type: in vitro ADME; conditions: human, all the CYP isoforms tested, read-out: percent inhibition
[8] = tested on: human cytochrome P450 (CYP) isoforms (CYP1A2, 2B6, 2C8, 2C9, 2C19, 2D6, and 3A); assay: as above; type: in vitro ADME; conditions: MGS0008 0.3-100 µmol/L, MGS0274 besylate 0.03-10 µmol/L
[9] = tested on: CYP1A2 mRNA; assay: CYP induction in primary cultured cryopreserved human hepatocytes, CYP1A2 mRNA; type: in vitro ADME; conditions: three consecutive 24-hour treatments
Method: (§1) The primary cultured cryopreserved human hepatocytes were plated in a collagen‐coated 96‐well plate (Becton Dickinson, Franklin Lakes, NJ) with Williams’ Medium E (Invitrogen, Carlsbad, CA) containing Geltrex^TM (Invitrogen) and Maintenance Supplements (Invitrogen) and maintained in humidified air‐5% CO2 at 37°C for 3 days. Then, the cells were cultured for three consecutive 24‐hour treatments with MGS0008 (3‐30 µmol/L), with MGS0274 besylate (3‐30 µmol/L), or with positive controls (omeprazole for CYP1A2 at 50 µmol/L, phenobarbital for CYP2B6 at 1000 µmol/L, or rifampicin for CYP3A4 at 10 µmol/L). The mRNA expression levels of CYP1A2, 2B6, and 3A4 were measured using the real‐time polymerase chain reaction (RT‐PCR) method (7500 Fast RT‐PCR system; Applied Biosystems, Foster City, CA) with TaqMan® Fast Universal PCR Master Mix (probe ID: Hs00167927_m1 for CYP1A2, Hs04183483_g1 for CYP2B6, and Hs00604506_ml for CYP3A4; Applied Biosystems). The fold change in the mRNA expression was calculated using the 2^‐ΔΔCT method.22

[10] = tested on: CYP2B6 mRNA; assay: CYP induction in primary cultured cryopreserved human hepatocytes, CYP2B6 mRNA; conditions: three consecutive 24-hour treatments
Method: as §1

[11] = tested on: CYP3A4 mRNA; type: in vitro ADME, human; conditions: three consecutive 24-hour treatments
Method: as §1

[12] = tested on: mRNA expression of CYP1A2, 2B6, and 3A4; assay: CYP induction in human hepatocytes, CYP1A2, 2B6 and 3A4 together; type: in vitro ADME; conditions: 3-30 µmol/L; three lots of human hepatocytes
Method: as §1

[13] = tested on: cultured human hepatocytes; assay: Toxicity to the cultured human hepatocytes; type: cell-based; conditions: at the concentrations tested (3-30 μM)

SMILES | IC50 [1] | IC50 [2] | IC50 [3] | IC50 [4] | IC50 [5] | IC50 [6] | inhibitory potential on the CYP isoforms [8] | Fold change of mRNA expression level CYP1A2 ([9]; hepatocyte lot Hu1487, 3 μM) | Fold change of mRNA expression level CYP1A2 ([9]; hepatocyte lot Hu1487, 10 μM) | Fold change of mRNA expression level CYP1A2 ([9]; hepatocyte lot Hu1487, 30 μM) | Fold change of mRNA expression level CYP1A2 ([9]; hepatocyte lot Hu8114, 3 μM) | Fold change of mRNA expression level CYP1A2 ([9]; hepatocyte lot Hu8114, 10 μM) | Fold change of mRNA expression level CYP1A2 ([9]; hepatocyte lot Hu8114, 30 μM) | Fold change of mRNA expression level CYP1A2 ([9]; hepatocyte lot Hu8123, 3 μM) | Fold change of mRNA expression level CYP1A2 ([9]; hepatocyte lot Hu8123, 10 μM) | Fold change of mRNA expression level CYP1A2 ([9]; hepatocyte lot Hu8123, 30 μM) | Fold change of mRNA expression level CYP2B6 ([10]; hepatocyte lot Hu1487, 3 μM) | Fold change of mRNA expression level CYP2B6 ([10]; hepatocyte lot Hu1487, 10 μM) | Fold change of mRNA expression level CYP2B6 ([10]; hepatocyte lot Hu1487, 30 μM) | Fold change of mRNA expression level CYP2B6 ([10]; hepatocyte lot Hu8114, 3 μM) | further results
N[C@]1(C(=O)O)[C@H]2[C@@H](C[C@@H]1F)[C@@H]2C(=O)O [MGS0008, (1S,2S,3S,5R,6S)‐2‐amino‐3‐fluorobicyclo[3.1.0]hexane‐2,6‐dicarboxylic acid] | > 100 µM | > 100 µM | > 100 µM | > 100 µM | > 100 µM | > 100 µM | no inhibitory potential | 0.8 fold | 0.7 fold | 1.0 fold | 1.1 fold | 1.0 fold | 1.1 fold | 0.9 fold | 1.1^b fold | 0.9 fold | 0.9 fold | 0.7 fold | 0.9 fold | 0.8 fold | inhibition at 100 µM ([7]; at 100 μM): < 50%; Fold change of mRNA expression level CYP2B6 ([10]; hepatocyte lot Hu8114, 10 μM): 0.8 fold; Fold change of mRNA expression level CYP2B6 ([10]; hepatocyte lot Hu8114, 30 μM): 1.0 fold; Fold change of mRNA expression level CYP2B6 ([10]; hepatocyte lot Hu8123, 3 μM): 1.2 fold; Fold change of mRNA expression level CYP2B6 ([10]; hepatocyte lot Hu8123, 10 μM): 1.2^b fold; Fold change of mRNA expression level CYP2B6 ([10]; hepatocyte lot Hu8123, 30 μM): 1.3 fold; Fold change of mRNA expression level CYP3A4 ([11]; hepatocyte lot Hu1487, 3 μM): 1.3 fold; Fold change of mRNA expression level CYP3A4 ([11]; hepatocyte lot Hu1487, 10 μM): 1.3 fold; Fold change of mRNA expression level CYP3A4 ([11]; hepatocyte lot Hu1487, 30 μM): 1.7 fold; Fold change of mRNA expression level CYP3A4 ([11]; hepatocyte lot Hu8114, 3 μM): 1.4 fold; Fold change of mRNA expression level CYP3A4 ([11]; hepatocyte lot Hu8114, 10 μM): 1.4 fold; Fold change of mRNA expression level CYP3A4 ([11]; hepatocyte lot Hu8114, 30 μM): 1.9 fold; Fold change of mRNA expression level CYP3A4 ([11]; hepatocyte lot Hu8123, 3 μM): 1.0 fold; Fold change of mRNA expression level CYP3A4 ([11]; hepatocyte lot Hu8123, 10 μM): 0.7 fold; Fold change of mRNA expression level CYP3A4 ([11]; hepatocyte lot Hu8123, 30 μM): 0.9 fold; induction potential on the CYP mRNA tested [12]: no apparent induction potential; toxicity to the cultured human hepatocytes [13]: did not show detectable toxicity
CC(C)[C@@H]1CC[C@@H](C)C[C@H]1OC(=O)O[C@@H](C)OC(=O)[C@H]1[C@@H]2C[C@H](F)[C@@](N)(C(=O)O)[C@@H]21.O=S(=O)(O)c1ccccc1 [MGS0274 besylate, (1S,2S,3S,5R,6S)‐2‐amino‐3‐fluoro‐6‐({(1S)‐1‐[({[(1R,2S,5R)‐5‐methyl‐2‐(propan‐2‐yl)cyclohexyl]oxy}carbonyl)oxy]ethoxy}carbonyl)bicyclo[3.1.0]hexane‐2‐carboxylic acid monobenzenesulfonate] | > 10 µM | > 10 µM | > 10 µM | > 10 µM | > 10 µM | > 10 µM | no inhibitory potential | 1.0 fold | 1.0 fold | 1.4 fold | 1.1 fold | 1.0 fold | 1.1 fold | 1.1 fold | 1.2 fold | 1.3 fold | 1.1 fold | 1.0 fold | 1.4 fold | 0.8 fold | inhibition at 10 µM ([7]; at 10 μM): < 50%; Fold change of mRNA expression level CYP2B6 ([10]; hepatocyte lot Hu8114, 10 μM): 1.0 fold; Fold change of mRNA expression level CYP2B6 ([10]; hepatocyte lot Hu8114, 30 μM): 1.5 fold; Fold change of mRNA expression level CYP2B6 ([10]; hepatocyte lot Hu8123, 3 μM): 1.7 fold; Fold change of mRNA expression level CYP2B6 ([10]; hepatocyte lot Hu8123, 10 μM): 1.8 fold; Fold change of mRNA expression level CYP2B6 ([10]; hepatocyte lot Hu8123, 30 μM): 2.4 fold; Fold change of mRNA expression level CYP3A4 ([11]; hepatocyte lot Hu1487, 3 μM): 1.4 fold; Fold change of mRNA expression level CYP3A4 ([11]; hepatocyte lot Hu1487, 10 μM): 1.5 fold; Fold change of mRNA expression level CYP3A4 ([11]; hepatocyte lot Hu1487, 30 μM): 1.8 fold; Fold change of mRNA expression level CYP3A4 ([11]; hepatocyte lot Hu8114, 3 μM): 1.1 fold; Fold change of mRNA expression level CYP3A4 ([11]; hepatocyte lot Hu8114, 10 μM): 0.9 fold; Fold change of mRNA expression level CYP3A4 ([11]; hepatocyte lot Hu8114, 30 μM): 1.1 fold; Fold change of mRNA expression level CYP3A4 ([11]; hepatocyte lot Hu8123, 3 μM): 0.8 fold; Fold change of mRNA expression level CYP3A4 ([11]; hepatocyte lot Hu8123, 10 μM): 0.8 fold; Fold change of mRNA expression level CYP3A4 ([11]; hepatocyte lot Hu8123, 30 μM): 0.9 fold; induction potential on the CYP mRNA tested [12]: no apparent induction potential; toxicity to the cultured human hepatocytes [13]: did not show detectable toxicity
